{
  "source": "paper doi:10.1101/704536v1",
  "about": "(biorxiv, 2019)",
  "key": {"repeat Tau (K18) [1]": {"molecular_target": "T1, repeat Tau (K18) (Homo sapiens, UniProt P10636)", "T1 sequence (P10636 561-689 limits assumed)": "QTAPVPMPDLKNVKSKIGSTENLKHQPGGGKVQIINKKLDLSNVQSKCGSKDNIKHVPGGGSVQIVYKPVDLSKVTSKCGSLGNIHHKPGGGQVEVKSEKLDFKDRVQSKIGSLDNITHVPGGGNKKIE", "experiment": "UV-visible absorbance titration at […] nm", "assay_type": "binding"}, "repeat Tau (K18) [2]": {"molecular_target": "T1, repeat Tau (K18)", "experiment": "ThS fluorescence, inhibition of heparin-induced aggregation", "assay_type": "biochemical"}},
  "data": [
    {"smiles": "O=c1cc(-c2ccccc2)oc2cc(O)c(O)c(O)c12", "note": "[Baicalein]", "values": [
      {"measurement": "Kd", "setting": "repeat Tau (K18) [1]", "result": 3.5, "unit": "µM"},
      {"measurement": "IC50", "setting": "repeat Tau (K18) [2]", "result": 35.8, "unit": "µM"}
    ]}
  ]
}
